Data set [1] can be described thus: Kinetic solubility (Tier I ADME). The following applies: kinetic from dmso stock.
For data set [2], the system named is SARS CoV-2 (USA_WA1/2020). The data set is described as follows: Cytopathic effect (CPE) assay. The data set is classed as cell-based. The following applies: for Emax: read-out: Efficacy CPE assay. For orientation: Cytopathic effects are the visible damage that an infection or toxin causes in cultured cells.
Data set [3] is described as follows: Parallel artificial membrane permeability assay (PAMPA). The conditions noted are these: PAMPA; for Permeability: Tier I ADME. For orientation: The PAMPA barrier holds no transporters, so it reflects passive diffusion.
The test system of the next data set is Vero-E6. Briefly: Cytotoxicity counter screen (cell viability, CellTiter-Glo). Format: cell-based. The following applies: for IC50: Chlorocebus sabaeus, read-out: IC50 (μM) cell viability. Here is the method:
Compound cytotoxicity was assessed in a BSL-2 counter screen as follows: Cell culture media (MEM, 1% Pen/Strep/GlutaMax, 1% HEPES, 2% HI FBS) was dispensed at 5 μl/well into ARPs and incubated at room temperature to allow for compound dissolution. Vero-E6 (selected for high ACE2 expression) was dispensed into assay plates at 4000 cells/well in 25 μl media. Assay plates were incubated for 72 h at 37 C, 5% CO2, 90% humidity. Then, 30 μl/well of CellTiter-Glo (Promega #G7573) was dispensed into the assay plate. Luminescence was read using a BMG PHERAstar plate reader following incubation at room temperature for 10 min to measure cell viability.

Data set [4] can be described thus: Rat liver microsomal (RLM) stability. The conditions noted are these: for half-life: rat.
A short description of the next data set: in vitro. The following applies: PAMPA.
Another data set is described as follows: physchem. The following applies: kinetic from dmso stock.
Another data set deals with SARS-CoV-2. The following applies: EIDD-2801 250 mpk BID; Compound P3 60 mpk BID.
Setting [5] is: Severe acute respiratory syndrome coronavirus 2, Vero C1008, % inhibition of CPE, SARS-CoV-2-infected Vero-E6, 72 h.
Where [6] appears, read: Severe acute respiratory syndrome coronavirus 2, Vero C1008, rescue IC50, SARS-CoV-2-infected Vero-E6, 72 h.
Setting [7] is: Vero C1008, uninfected Vero-E6, 72 h, CellTiter-Glo.
The mark [8] stands for this setting: uninfected Vero-E6, 72 h, CellTiter-Glo.
Where [9] appears, read: Severe acute respiratory syndrome coronavirus 2, Vero C1008, 72 h.

Converted amounts (≈) assume the structure as drawn. Read-outs that look alike come from different tables or passages of the source.

Description for SARS-CoV-2: EIDD-2801 (molnupiravir) was chosen as the positive control at 250 mpk BID oral dose.

By solubility is commonly meant how much of the substance goes into solution per volume. Low readings indicate little dissolved substance, high ones much dissolved substance. As a reminder, the IC50 is the concentration that inhibits the measured activity by half. As a reminder, the Papp is a coefficient for how fast a substance crosses the barrier. A word on the half-life: it is the time in which the quantity being followed falls by half. Turning to `O=C(Nc1ccc([N+](=O)[O-])cc1Cl)c1cc(Cl)ccc1OC1CCNCC1` [Compound 4, 5-chloro-N-(2-chloro-4-nitrophenyl)-2-(piperidin-4-yloxy)benzamide], the solubility in data set [1] is 8.4 µg/mL (≈ 20.5 µM). For the same compound, the Emax in data set [2] (setting [5]) was -8.3%. The IC50 in data set [2] (setting [6]) came to 5.1 µM; with Vero-E6 (setting [7]), 4.05 µM. In data set [3], this compound yielded an apparent permeability coefficient (Papp) of 516 ×10⁻⁶ cm/s. The compound further displayed a half-life in data set [4] (rat liver microsomes) of over 30 min.

`O=C(Nc1ccc([N+](=O)[O-])cc1)c1cc(Cl)ccc1O` [Compound 24, 5-chloro-2-hydroxy-N-(4-nitrophenyl)benzamide]: the Permeability in data set [3] was 127.13 10^−6 cm/sec. For the same compound, in the data set on Vero-E6 (Vero C1008, 72 h), the IC50 is 0.57 µM. Moreover, the Efficacy cell viability in the data set with Vero-E6 (setting [8]) is recorded as −93.1. For the same compound, the “RLM stability (T1/2 min)” value in data set [4] (rat liver microsomes, T1/2) was found to be 22 min.

For `COc1cc([N+](=O)[O-])ccc1NC(=O)c1cc(Cl)ccc1O` [Compound 27, 5-chloro-2-hydroxy-N-(2-methoxy-4-nitrophenyl)benzamide], in data set [3], the Permeability is recorded as 334.4 10^−6 cm/sec. The IC50 in the data set on Vero-E6 (Vero C1008, 72 h) is 0.64 µM. Also, the Efficacy cell viability in the data set on Vero-E6 (setting [8]) is recorded as −92.9. Further, the half-life in data set [4] (microsomes) is over 30 min.

In data set [3], `N#Cc1ccc(NC(=O)c2cc(Cl)ccc2O)c(Cl)c1` [Compound 32, 5-chloro-N-(2-chloro-4-cyanophenyl)-2-hydroxybenzamide] yielded a Papp of 5.16 ×10⁻⁶ cm/s. In the data set with Vero-E6 (setting [7]), the IC50 is 1.01 µM. The same compound displayed an Efficacy cell viability in the data set with Vero-E6 (setting [8]) of −99.6. The compound further returned a half-life in data set [4] (rat liver microsomes) of over 30 min.

The compound `O=C(Nc1ccc(C(F)(F)F)cc1)c1cc(Cl)ccc1O` [Compound 39, 5-chloro-2-hydroxy-N-(4-(trifluoromethyl)phenyl)benzamide] yielded a Papp in data set [3] of 22.3 ×10⁻⁶ cm/s. Besides, the IC50 in the data set on Vero-E6 (Vero C1008, 72 h) was found to be 0.45 µM. The compound further showed an Efficacy cell viability with Vero-E6 (setting [8]) of −94.6. The half-life in data set [4] (microsomes) is over 30 min.

For the compound `O=C(Oc1ccc(Cl)cc1C(=O)Nc1ccc([N+](=O)[O-])cc1Cl)c1ccc(C(F)(F)F)cc1` [Compound P1, 4-chloro-2-((2-chloro-4-nitrophenyl)carbamoyl)phenyl 4-(trifluoromethyl)benzoate], the Emax in data set [2] (setting [5]) worked out at 34%. Besides, the IC50 in data set [2] (setting [6]) came out at 0.11 µM; in the data set on Vero-E6 (setting [7]) it was 0.57 µM. The same compound gave an Efficacy cell viability in the data set with Vero-E6 (setting [8]) of −96.34. The compound further yielded a Papp in the data set “in vitro” of under 2.6 ×10⁻⁶ cm/s. Besides, in “physchem”, the solubility was under 1 µg/mL.

Consider `CCCCCCCC(=O)Oc1ccc(Cl)cc1C(=O)Nc1ccc([N+](=O)[O-])cc1Cl` [Compound P2, 4-chloro-2-((2-chloro-4-nitrophenyl)carbamoyl)phenyl octanoate], for which the Emax in data set [2] (setting [5]) was found to be 36.5%. In addition, the IC50 came to 0.1 µM in data set [2] (setting [6]) and 0.57 µM in the data set on Vero-E6 (setting [7]). The Efficacy cell viability with Vero-E6 (setting [8]) was −95.8. Moreover, the Papp in “in vitro” was under 6.5 ×10⁻⁶ cm/s. Further, in “physchem”, the solubility was found to be 1.1 µg/mL (≈ 2.43 µM).

Consider `CC(=O)Oc1ccc(Cl)cc1C(=O)Nc1ccc([N+](=O)[O-])cc1Cl` [Compound P4, 4-chloro-2-((2-chloro-4-nitrophenyl)carbamoyl)phenyl acetate], for which, in data set [2] (setting [5]), the Emax was determined as 36.2%. Also, the IC50 in data set [2] (setting [6]) was 0.25 µM; in the data set with Vero-E6 (setting [7]) it was 0.57 µM. In the data set on Vero-E6 (setting [8]), this compound came in with an Efficacy cell viability of −93.0. Further, the Papp in the data set “in vitro” was 632 ×10⁻⁶ cm/s. The same compound yielded a solubility in the data set “physchem” of under 1 µg/mL.

As for `COCC(=O)Oc1ccc(Cl)cc1C(=O)Nc1ccc([N+](=O)[O-])cc1Cl` [Compound P5, 4-chloro-2-((2-chloro-4-nitrophenyl)carbamoyl)phenyl 2-methoxyacetate], in data set [2] (setting [5]), the Emax was determined as 37%. Further, the IC50 in data set [2] (setting [6]) is 0.11 µM; in the data set with Vero-E6 (setting [7]), 0.51 µM. In the data set with Vero-E6 (setting [8]), this compound had an Efficacy cell viability of −91.2. This compound yielded a solubility in “physchem” of under 1 µg/mL.

Turning to `CC(C)OC(=O)Oc1ccc(Cl)cc1C(=O)Nc1ccc([N+](=O)[O-])cc1Cl` [Compound P6, 4-chloro-2-((2-chloro-4-nitrophenyl)carbamoyl)phenyl isopropyl carbonate], the Emax in data set [2] (setting [5]) came out at 37.1%. Moreover, the IC50 turned out to be 0.11 µM in data set [2] (setting [6]) and 0.45 µM in the data set with Vero-E6 (setting [7]). Moreover, the Efficacy cell viability in the data set on Vero-E6 (setting [8]) is on record as −82.3. In “in vitro” (pH 5), this compound showed a Papp of 57 ×10⁻⁶ cm/s. Also, the solubility in “physchem” was under 1 µg/mL.

Consider `O=C(Oc1ccc(Cl)cc1C(=O)Nc1ccc([N+](=O)[O-])cc1Cl)c1ccccc1` [Compound P7, 4-chloro-2-((2-chloro-4-nitrophenyl)carbamoyl)phenyl benzoate], for which the Emax in data set [2] (setting [5]) came out at 26.9%. Further, the IC50 in data set [2] (setting [6]) came to 0.13 µM; in the data set with Vero-E6 (setting [7]), 0.32 µM. In addition, the Efficacy cell viability in the data set with Vero-E6 (setting [8]) was −94.0. Moreover, the solubility in “physchem” was under 1 µg/mL.

In data set [1], `CCOP(=O)(OCC)Oc1ccc(Cl)cc1C(=O)Nc1ccc([N+](=O)[O-])cc1Cl` [Compound P8, 4-chloro-2-((2-chloro-4-nitrophenyl)carbamoyl)phenyl diethyl phosphate] came in with a solubility of under 1 µg/mL. In data set [2] (setting [9]), the IC50 came to 0.41 µM and the Emax amounted to 36.8%. This compound came in with an apparent permeability (Papp) in data set [3] of 982 ×10⁻⁶ cm/s. Further, in the data set with Vero-E6 (Vero C1008, 72 h), the IC50 is 0.91 µM. The Efficacy cell viability in the data set with Vero-E6 (setting [8]) is on record as −90.6. Besides, in data set [4] (microsomes), the half-life was over 30 min.

Take `CC(C)COC(=O)Oc1ccc(Cl)cc1C(=O)Nc1ccc([N+](=O)[O-])cc1Cl` [Compound P9, 4-chloro-2-((2-chloro-4-nitrophenyl)carbamoyl)phenyl isobutyl carbonate]: the Emax in data set [2] (setting [5]) worked out at 35.2%. The IC50 was 0.13 µM in data set [2] (setting [6]) and 0.57 µM in the data set on Vero-E6 (setting [7]). For the same compound, in the data set on Vero-E6 (setting [8]), the Efficacy cell viability is listed as −91.0. Further, the solubility in “physchem” came out at 4.48 µg/mL (≈ 10.5 µM).

As to `CC(C)C(=O)OC[C@H]1O[C@@H](n2ccc(NO)nc2=O)[C@H](O)[C@@H]1O` [EIDD-2801, reference compound], the “IHC immunoreactivity staining in the right lung” value with SARS-CoV-2 is recorded as “lowered in severity”.
